Data reported in US7745619B2, “Vinca derivatives” (priority 2003, dated 2010).
Where two headings read alike, the source gives them in different places.

Key:
HeLa S-3 cells = experiment: HeLa GI50 determination (SRB growth inhibition); format: cell-based, human
Procedure, shortened: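 Cells plated at 2×10^4/well; day-0 plate TCA-fixed, test compounds added at 10-fold dilutions for 2 days. SRB staining, absorbance at 490 nm; GI = 100×(T−T0)/(C−T0), GI50 from growth inhibition vs. concentration plots.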

MCF-7 cells = experiment: MCF-7 GI50 determination (crystal violet growth inhibition); format: cell-based, human
Procedure, shortened: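 MCF-7 cells seeded at 2×10^4 cells/well, grown 24 h drug-free, then exposed to 10-fold compound dilutions for 4 days. Glutaraldehyde-fixed cells stained with crystal violet, absorbance read at 570 nm; GI=100×(T/T0) against day-0 control OD, GI50 from growth inhibition versus concentration plots.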

[1] = Homo sapiens, HeLa S3, 48 h, read-out: HeLa Cells GI50 (nM)
[2] = Homo sapiens, MCF7, 96 h, read-out: MCF-7 Cells GI50 (nM)
[3] = Homo sapiens, HeLa S3, 48 h, HeLa S-3 cells, 2 days of treatment, sulforhodamine B, read-out: HeLa Cells GI50
[4] = Homo sapiens, MCF7, 96 h, MCF-7 cells, 4 days of treatment, crystal violet, read-out: MCF-7 Cells GI50

## CC[C@]1(O)C[C@H]2CN(CCc3c([nH]c4ccc(N5CCCC5)cc34)[C@@](C(=O)OC)(c3cc4c(cc3OC)N(C)[C@H]3[C@@](O)(C(=O)OC)[C@H](OC(C)=O)[C@]5(CC)C=CCN6CC[C@]43[C@@H]65)C2)C1 [Example 87, 12′-(pyrrolidin-1-yl) vinblastine]
HeLa S-3 cells; [1]
  GI50: 50 nM
MCF-7 cells; [2]
  GI50: 60 nM

## CCCCC#Cc1ccc2[nH]c3c(c2c1)CCN1C[C@H](C[C@@](O)(CC)C1)C[C@]3(C(=O)OC)c1cc2c(cc1OC)N(C=O)[C@H]1[C@@](O)(C(=O)OC)[C@H](OC(C)=O)[C@]3(CC)C=CCN4CC[C@]21[C@@H]43 [Example 22, 12′-hexynylvincristine]
HeLa S-3 cells; [1]
  GI50: 300 nM
MCF-7 cells; [2]
  GI50: 300 nM

## di(12′-vinblastine) disulfide [Example 60]
HeLa S-3 cells; HeLa S-3 cells, 2 days of treatment, sulforhodamine B, read-out: HeLa Cells GI50
  GI50: 10 nM
MCF-7 cells; MCF-7 cells, 4 days of treatment, crystal violet, read-out: MCF-7 Cells GI50
  GI50: 20 nM

## CCSc1ccc2[nH]c3c(c2c1)CCN1C[C@H](C[C@@](O)(CC)C1)C[C@]3(C(=O)OC)c1cc2c(cc1OC)N(C)[C@H]1[C@@](O)(C(=O)OC)[C@H](OC(C)=O)[C@]3(CC)C=CCN4CC[C@]21[C@@H]43 [Example 41, 12′-(ethylsulfanyl) vinblastine]
HeLa S-3 cells; [3]
  GI50: 2 nM
MCF-7 cells; [4]
  GI50: 3 nM

## CC[C@]1(O)C[C@H]2CN(CCc3c([nH]c4ccc(N5CCOCC5)cc34)[C@@](C(=O)OC)(c3cc4c(cc3OC)N(C)[C@H]3[C@@](O)(C(=O)OC)[C@H](OC(C)=O)[C@]5(CC)C=CCN6CC[C@]43[C@@H]65)C2)C1 [Example 86, 12′-(4-morpholino) vinblastine]
HeLa S-3 cells; [1]
  GI50: 30 nM
MCF-7 cells; [2]
  GI50: 50 nM

## CC[C@]1(O)C[C@H]2CN(CCc3c([nH]c4ccc(Sc5ccccc5Cl)cc34)[C@@](C(=O)OC)(c3cc4c(cc3OC)N(C=O)[C@H]3[C@@](O)(C(=O)OC)[C@H](OC(C)=O)[C@]5(CC)C=CCN6CC[C@]43[C@@H]65)C2)C1 [Example 56, 12′-(2-chlorophenylsulfanyl)vincristine]
HeLa S-3 cells; [1]
  GI50: 30 nM
MCF-7 cells; [2]
  GI50: 30 nM

## CC[C@]1(O)C[C@H]2CN(CCc3c([nH]c4ccc(S)cc34)[C@@](C(=O)OC)(c3cc4c(cc3OC)N(C)[C@H]3[C@@](O)(C(=O)OC)[C@H](OC(C)=O)[C@]5(CC)C=CCN6CC[C@]43[C@@H]65)C2)C1 [Example 53, 12′-thiovinblastine]
HeLa S-3 cells; [3]
  GI50: 20 nM
MCF-7 cells; [4]
  GI50: 30 nM

## CC[C@]1(O)C[C@H]2CN(CCc3c([nH]c4ccc(SCC(=O)NC)cc34)[C@@](C(=O)OC)(c3cc4c(cc3OC)N(C)[C@H]3[C@@](O)(C(=O)OC)[C@H](OC(C)=O)[C@]5(CC)C=CCN6CC[C@]43[C@@H]65)C2)C1 [Example 46, 12′-(methylaminocarbonylmethylsulfanyl)vinblastine]
HeLa S-3 cells; [1]
  GI50: 200 nM
MCF-7 cells; [2]
  GI50: 500 nM

## CC[C@]1(O)C[C@H]2CN(CCc3c([nH]c4ccc(N(C)C)cc34)[C@@](C(=O)OC)(c3cc4c(cc3OC)N(C)[C@H]3[C@@](O)(C(=O)OC)[C@H](OC(C)=O)[C@]5(CC)C=CCN6CC[C@]43[C@@H]65)C2)C1 [Example 81, 12′-(N,N-dimethylamino)vinblastine]
HeLa S-3 cells; [3]
  GI50: 30 nM
MCF-7 cells; [4]
  GI50: 50 nM

## CC[C@]1(O)C[C@H]2CN(CCc3c([nH]c4ccc(C=O)cc34)[C@@](C(=O)OC)(c3cc4c(cc3OC)N(C=O)[C@H]3[C@@](O)(C(=O)OC)[C@H](OC(C)=O)[C@]5(CC)C=CCN6CC[C@]43[C@@H]65)C2)C1 [Example 62, 12′-formylvincristine]
HeLa S-3 cells; [3]
  GI50: 10 nM
MCF-7 cells; [4]
  GI50: 30 nM

## CC[C@]1(O)C[C@H]2CN(CCc3c([nH]c4ccc(-c5ccsc5)cc34)[C@@](C(=O)OC)(c3cc4c(cc3OC)N(C)[C@H]3[C@@](O)(C(=O)OC)[C@H](OC(C)=O)[C@]5(CC)C=CCN6CC[C@]43[C@@H]65)C2)C1 [Example 14, 12′-(3-thienyl) vinblastine]
HeLa S-3 cells; [1]
  GI50: 300 nM
MCF-7 cells; [2]
  GI50: 300 nM

## CC[C@]1(O)C[C@H]2CN(CCc3c([nH]c4ccc(C#CC(C)C)cc34)[C@@](C(=O)OC)(c3cc4c(cc3OC)N(C)[C@H]3[C@@](O)(C(=O)OC)[C@H](OC(C)=O)[C@]5(CC)C=CCN6CC[C@]43[C@@H]65)C2)C1 [Example 20, 12′-(3-methylbutynyl) vinblastine]
HeLa S-3 cells; [1]
  GI50: 500 nM
MCF-7 cells; [2]
  GI50: > 1000 nM
